Data published in PubChem BioAssay AID1963977 (Molecular Pharmacology Branch, DTP, NCI, 2024).

Test system: 624824-186-R-J3-PDC multicell spheroids, viability
Assay: Anticancer human tumor 624824-186-R-J3-PDC patient-derived colon adenocarcinoma cell line growth inhibition [PI3K]
Conditions: for IC50: curve of first compound; for viability, T/C: stronger effect = lower value
Method in brief: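 Viability of mixed-cell spheroids was determined after exposure to pairwise combinations, one partner being inavolisib, alpelisib, duvelisib or copanlisib. Highest tested concentration matched clinical Cmax where known and 10 microM where not, descending in half-log steps.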

[1] = second compound 0.0316 µM, first compound 0.0316 µM
[2] = second compound 0.0316 µM, first compound 0.1 µM
[3] = second compound 0.1 µM, first compound 0.0316 µM
[4] = second compound 0.1 µM, first compound 0.1 µM
[5] = second compound 0.316 µM, first compound 0.0316 µM
[6] = second compound 0.316 µM, first compound 0.1 µM
[7] = second compound 1 µM, first compound 0.0316 µM
[8] = second compound 1 µM, first compound 0.1 µM
[9] = second compound 3.16 µM, first compound 0.0316 µM
[10] = second compound 3.16 µM, first compound 0.1 µM
[11] = second compound 10 µM, first compound 0.0316 µM
[12] = second compound 10 µM, first compound 0.1 µM
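Also: spheroids exposed to agents for seven days before luminescence read.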
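For viability, T/C in this document: luminescent signal used as a stand-in for spheroid viability; percent viability relative to DMSO vehicle control wells taken as 100%.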

CC(C)n1nc(-c2ccc3oc(N)nc3c2)c2c(N)ncnc21 + CC(Nc1ncnc2nc[nH]c12)c1cc2cccc(Cl)c2c(=O)n1-c1ccccc1
IC50 (second compound 0.0316 µM): > 0.1 µM | IC50 (second compound 0.1 µM): > 0.1 µM | IC50 (second compound 0.316 µM): > 0.1 µM | IC50 (second compound 1 µM): > 0.1 µM | IC50 (second compound 3.16 µM): 0.0918 µM | IC50 (second compound 10 µM): 0.0619 µM | viability, T/C (second compound 0.0316 µM, first compound 0.000316 µM): 97.5% | viability, T/C (second compound 0.0316 µM, first compound 0.001 µM): 102% | viability, T/C (second compound 0.0316 µM, first compound 0.00316 µM): 103% | viability, T/C (second compound 0.0316 µM, first compound 0.01 µM): 101% | viability, T/C [1]: 98.7% | viability, T/C [2]: 62.4% | viability, T/C (second compound 0.1 µM, first compound 0.000316 µM): 95.5% | viability, T/C (second compound 0.1 µM, first compound 0.001 µM): 107% | viability, T/C (second compound 0.1 µM, first compound 0.00316 µM): 116% | viability, T/C (second compound 0.1 µM, first compound 0.01 µM): 107% | viability, T/C [3]: 91.5% | viability, T/C [4]: 69% | viability, T/C (second compound 0.316 µM, first compound 0.000316 µM): 98.8% | viability, T/C (second compound 0.316 µM, first compound 0.001 µM): 101% | viability, T/C (second compound 0.316 µM, first compound 0.00316 µM): 113% | viability, T/C (second compound 0.316 µM, first compound 0.01 µM): 109% | viability, T/C [5]: 97.1% | viability, T/C [6]: 58.7% | viability, T/C (second compound 1 µM, first compound 0.000316 µM): 102% | viability, T/C (second compound 1 µM, first compound 0.001 µM): 111% | viability, T/C (second compound 1 µM, first compound 0.00316 µM): 100% | viability, T/C (second compound 1 µM, first compound 0.01 µM): 103% | viability, T/C [7]: 98.1% | viability, T/C [8]: 62.2% | viability, T/C (second compound 3.16 µM, first compound 0.000316 µM): 105% | viability, T/C (second compound 3.16 µM, first compound 0.001 µM): 111% | viability, T/C (second compound 3.16 µM, first compound 0.00316 µM): 96.3% | viability, T/C (second compound 3.16 µM, first compound 0.01 µM): 97.1% | viability, T/C [9]: 85.3% | viability, T/C [10]: 46.6% | viability, T/C (second compound 10 µM, first compound 0.000316 µM): 93.2% | viability, T/C (second compound 10 µM, first compound 0.001 µM): 91.3% | viability, T/C (second compound 10 µM, first compound 0.00316 µM): 95.1% | viability, T/C (second compound 10 µM, first compound 0.01 µM): 79.9% | viability, T/C [11]: 68.1% | viability, T/C [12]: 37.6%

CC1(C)CCC(CN2CCN(c3ccc(C(=O)NS(=O)(=O)c4ccc(NCC5CCOCC5)c([N+](=O)[O-])c4)c(Oc4cnc5[nH]ccc5c4)c3)CC2)=C(c2ccc(Cl)cc2)C1 + CC(Nc1ncnc2nc[nH]c12)c1cc2cccc(Cl)c2c(=O)n1-c1ccccc1
IC50 (second compound 0.0316 µM): 7.77 µM | IC50 (second compound 0.1 µM): 7.33 µM | IC50 (second compound 0.316 µM): 8.72 µM | IC50 (second compound 1 µM): 7.87 µM | IC50 (second compound 3.16 µM): 8.48 µM | IC50 (second compound 10 µM): 9 µM | viability, T/C [1]: 112% | viability, T/C [2]: 94.8% | viability, T/C (second compound 0.0316 µM, first compound 0.316 µM): 116% | viability, T/C (second compound 0.0316 µM, first compound 1 µM): 96.7% | viability, T/C (second compound 0.0316 µM, first compound 3.16 µM): 106% | viability, T/C (second compound 0.0316 µM, first compound 10 µM): 34.5% | viability, T/C [3]: 103% | viability, T/C [4]: 92.4% | viability, T/C (second compound 0.1 µM, first compound 0.316 µM): 91.4% | viability, T/C (second compound 0.1 µM, first compound 1 µM): 90.1% | viability, T/C (second compound 0.1 µM, first compound 3.16 µM): 111% | viability, T/C (second compound 0.1 µM, first compound 10 µM): 32.5% | viability, T/C [5]: 110% | viability, T/C [6]: 114% | viability, T/C (second compound 0.316 µM, first compound 0.316 µM): 108% | viability, T/C (second compound 0.316 µM, first compound 1 µM): 106% | viability, T/C (second compound 0.316 µM, first compound 3.16 µM): 117% | viability, T/C (second compound 0.316 µM, first compound 10 µM): 41.6% | viability, T/C [7]: 97.9% | viability, T/C [8]: 111% | viability, T/C (second compound 1 µM, first compound 0.316 µM): 112% | viability, T/C (second compound 1 µM, first compound 1 µM): 99.2% | viability, T/C (second compound 1 µM, first compound 3.16 µM): 117% | viability, T/C (second compound 1 µM, first compound 10 µM): 35% | viability, T/C [9]: 109% | viability, T/C [10]: 97.2% | viability, T/C (second compound 3.16 µM, first compound 0.316 µM): 102% | viability, T/C (second compound 3.16 µM, first compound 1 µM): 111% | viability, T/C (second compound 3.16 µM, first compound 3.16 µM): 125% | viability, T/C (second compound 3.16 µM, first compound 10 µM): 40.1% | viability, T/C [11]: 88.6% | viability, T/C [12]: 95.3% | viability, T/C (second compound 10 µM, first compound 0.316 µM): 94.6% | viability, T/C (second compound 10 µM, first compound 1 µM): 93.8% | viability, T/C (second compound 10 µM, first compound 3.16 µM): 108% | viability, T/C (second compound 10 µM, first compound 10 µM): 45.3%
